The source of these data is article PMC8215295, “Identification and characterization of the pyridoxal 5’-phosphate allosteric site in Escherichia coli pyridoxine 5’-phosphate oxidase” (The Journal of Biological Chemistry, 2021).

Where “and” joins values, the source holds several entries; their conditions need not be identical. Identical values can stand only once. Entries after “also recorded” stand apart in the source; their conditions may differ.

Data set [1] has as its target T1, ePNPO K145A/F177A variant (Escherichia coli, UniProt P0AFI7, F177A/K145A).
T1 construct: the entire polypeptide chain is made by 218 residues; made in house; host or cells: E. coli MDS00, pET22b(+)
Put plainly: Fluorimetric PLP binding equilibrium. As for the experimental part:
(§1) Binding of PLP to ePNPO variants was also analyzed using the spectrofluorometric method previously employed for the wildtype enzyme ([5]), which is based on the resulting increase of FMN fluorescence emission.

The target of data set [2] is T2, ePNPO N84A/K145A/F177A variant (Escherichia coli, UniProt P0AFI7, F177A/K145A/N84A).
T2 construct: the entire polypeptide chain is made by 218 residues; made in house; host or cells: E. coli MDS00, pET22b(+)
Put plainly: Fluorimetric PLP binding equilibrium. As for the experimental part: as §1

Data set [3] concerns the target T3, ePNPO N84W/K145A/F177A variant (Escherichia coli, UniProt P0AFI7, F177A/K145A/N84W).
T3 construct: the entire polypeptide chain is made by 218 residues; made in house; host or cells: E. coli MDS00, pET22b(+)
Nature of the data set: Fluorimetric PLP binding equilibrium. As for the experimental part: as §1

For data set [4], the target named is T1, ePNPO K145A/F177A variant. Nature of the data set: PLP retention after SEC. In kind it is binding. The settings on record: 100 μM enzyme + equimolar PLP, with respect to protein subunits. The procedure:
(§2) It is known by previous experiments on wildtype ePNPO that, when the protein is incubated with PLP and then passed through an SEC column, it retains PLP tightly bound to it ([7]). […] All ePNPO variants (100 μM) were incubated with an equimolar amount of PLP. Then, they were passed through an SEC column and the stoichiometry of protein-bound PLP with respect to protein subunits was determined. The percentage of protein-bound PLP was 72 ± 8, 73 ± 10, and 73 ± 19, with the K145A/F177A, N84A/K145A/F177A and N84W/K145A/F177A ePNPO variants, respectively (Table 1).

The target of data set [5] is T2, ePNPO N84A/K145A/F177A variant. Nature of the data set: PLP retention after SEC. The data set is classed as binding. The settings on record: 100 μM enzyme + equimolar PLP, with respect to protein subunits. As for the experimental part:
as §2

For data set [6], the target named is T3, ePNPO N84W/K145A/F177A variant. Put plainly: PLP retention after SEC. The data set is classed as binding. As to conditions: 100 μM enzyme + equimolar PLP, with respect to protein subunits. The procedure:
as §2

Data set [7] concerns the target T4, wildtype ePNPO (Escherichia coli, UniProt P0AFI7).
T4 construct: the entire polypeptide chain is made by 218 residues; made in house; host or cells: E. coli MDS00, pET22b(+)
Put plainly: PLP retention after SEC. In kind it is binding. The settings on record: 100 μM enzyme + equimolar PLP, with respect to protein subunits. As for the experimental part:
as §2

Data set [8] has as its target T4, wildtype ePNPO. The settings on record: read-out: KD^PLP, fluorimetric PLP binding equilibrium; cited from earlier work.
In data set [9] the target is T4, wildtype ePNPO. The settings on record: cited from earlier work.
Data set [10] concerns the target T4, wildtype ePNPO. The settings on record: in solution; cited from earlier work.
Data set [11] relates to ePNPO quadruple variant (K72I/Y129F/R133L/H199A). As to conditions: ePNPO quadruple variant with impaired active site; cited from earlier work.
Data set [12] concerns human pyridoxine 5’-phosphate oxidase. Also on record: method as in PMID 32788630. As to conditions: human PNPO; parabolic inhibition model; cited from earlier work.
For the next data set, the system named is ePNPO. The settings on record: cited from earlier work.
Data set [13] has as its target T5, ePNPO R23L variant (Escherichia coli, UniProt P0AFI7, R23L). Nature of the data set: PLP retention after SEC. The settings on record: 100 μM enzyme + equimolar PLP, with respect to protein subunits.
The target in data set [14] is T6, ePNPO R23L/R24L variant (Escherichia coli, UniProt P0AFI7, R23L/R24L). Nature of the data set: PLP retention after SEC. As to conditions: 100 μM enzyme + equimolar PLP, with respect to protein subunits.
The target in data set [15] is T5, ePNPO R23L variant. Put plainly: Fluorimetric PLP binding equilibrium.
Data set [16] concerns the target T6, ePNPO R23L/R24L variant. Put plainly: Fluorimetric PLP binding equilibrium.
In a further data set the target is R23L/R24L ePNPO (Escherichia coli, UniProt P0AFI7, R23L/R24L). Nature of the data set: PLP binding stoichiometry, fluorimetric titration. The settings on record: titration of 2, 4 and 8 μM ePNPO with PLP.
Data set [17] deals with T6, ePNPO R23L/R24L variant. Put plainly: biochemical. Also on record: the entire polypeptide chain is made by 218 residues; made in house; host or cells: E. coli MDS00, pET22b(+). In kind it is biochemical. From the text: Initial velocity data obtained with all variant forms were fitted to the Michaelis–Menten equation in order to obtain apparent VMAX and KM values as a function of PLP concentration.
Figure 7 Kinetic analysis of PLP inhibition with Arg-cage variants. […] Initial velocity measurements shown in the left panels are the average ± standard deviation of three independent measurements. Saturation curves were fitted to the Michaelis–Menten equation, obtaining apparent VMAX and KM values as a function of PLP concentration. These are represented as 1/VMAX (blue symbols) and KM/VMAX (red symbols) in the right panels, in order to facilitate the interpretation of the PLP inhibition mechanism from the shape of graphs, which correspond to the classic secondary plots of the Y-intercept and slope derived from Lineweaver–Burk plots. As detailed in the Experimental Procedures section, initial velocity data and 1/VMAX and KM/VMAX values of each data set were globally fitted to Equations (3), (4), (5), obtaining the continuous lines shown in the graphs and the parameter values shown in Table 3.
In order to analyze the above-mentioned kinetic data, a general inhibition model was considered (Fig. 8A), in which PLP binds at both the active and allosteric sites. […] Therefore, the dissociation constant of the substrate binding equilibrium may be assumed to correspond to the Michaelis–Menten constant (KM) derived from steady-state kinetic measurements. Equations describing the dependence of initial velocity, 1/VMAX, and KM/VMAX on substrate and PLP concentration were derived on the basis of these assumptions (Equations (3), (4), (5)). Using these equations, initial velocity data as a function of substrate concentration, obtained at all different fixed PLP concentrations, were globally fit together with the previously obtained values of apparent 1/VMAX and KM/VMAX as a function of PLP concentration.
Inhibition kinetics were measured in 50 mM Na-Hepes pH 7.6. […] All saturation curves obtained by varying PNP at a fixed PLP concentration were independently analyzed using the Michaelis–Menten equation, obtaining apparent VMAX and apparent KM values, which were then used to calculate 1/appVMAX and appKM/appVMAX as a function of PLP concentration.

Data set [18] deals with the molecule itself. Nature of the data set: crystal structure; ePNPOqm without PLP, space group P3(1) 2 1, 1.56 Å; one subunit in the asymmetric unit, dimer generated by the crystallographic 2-fold axis; hanging drop, (NH4)2SO4, 298 K.

T6 sequence (P0AFI7 whole entry R23L/R24L): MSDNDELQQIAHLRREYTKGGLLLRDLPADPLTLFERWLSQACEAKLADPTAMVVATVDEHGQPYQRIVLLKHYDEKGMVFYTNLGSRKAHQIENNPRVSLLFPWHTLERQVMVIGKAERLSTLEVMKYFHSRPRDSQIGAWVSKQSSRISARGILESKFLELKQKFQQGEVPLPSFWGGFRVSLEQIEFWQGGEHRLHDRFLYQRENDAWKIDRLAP
T4 sequence (P0AFI7 whole entry): as the sequence (P0AFI7 whole entry R23L/R24L) above, with L23R, L24R counted along it
T5 sequence (P0AFI7 whole entry R23L): as the sequence (P0AFI7 whole entry R23L/R24L) above, with L24R counted along it
T3 sequence (P0AFI7 whole entry N84W/K145A/F177A): as the sequence (P0AFI7 whole entry R23L/R24L) above, with L23R, L24R, N84W, K145A, F177A counted along it
T1 sequence (P0AFI7 whole entry K145A/F177A): as the sequence (P0AFI7 whole entry R23L/R24L) above, with L23R, L24R, K145A, F177A counted along it
T2 sequence (P0AFI7 whole entry N84A/K145A/F177A): as the sequence (P0AFI7 whole entry R23L/R24L) above, with L23R, L24R, N84A, K145A, F177A counted along it
R23L/R24L ePNPO, sequence (P0AFI7 whole entry R23L/R24L): as the sequence (P0AFI7 whole entry R23L/R24L) above

Regarding `Cc1ncc(COP(=O)(O)O)c(C=O)c1O` [PLP, Pyridoxal 5’-phosphate], the Kd in data set [1] was 0.47 ± 0.06 µM; in data set [2] it was 0.36 ± 0.05 µM; in data set [3], 0.33 ± 0.07 µM; at wildtype ePNPO [8] it was 0.15 µM; on ePNPO R23L variant [15], 0.58 ± 0.12 µM; on ePNPO R23L/R24L variant [16] it was 1 ± 0.09 µM. Further, the “PLP (%) protein-bound PLP retained after SEC” value was 72 ± 8% in [4]; 73 ± 10% in [5]; 73 ± 19% in data set [6]; 70% and 69 ± 19% on wildtype ePNPO [7]; 38 ± 11% at ePNPO R23L variant [13]; 30 ± 8% on ePNPO R23L/R24L variant [14]. Moreover, the “αKI (PLP binding at allosteric site of ES complex)” value at wildtype ePNPO [9] (WT, determined according to Figure 2A model) was 7.13 ± 0.52 µM; at ePNPO R23L/R24L variant [17] (global fit (Fig. 8A model)) it was 5.39 ± 1.14 µM. The Ki is 0.59 ± 0.7 µM on wildtype ePNPO [9] (read-out: KI (PLP binding at the allosteric site), WT, determined according to Figure 2A model); 0.82 ± 0.02 µM at ePNPO R23L/R24L variant [17] (KI (PLP binding at the allosteric site), global fit (Fig. 8A model)); 6.58 ± 0.62 µM on ePNPO R23L/R24L variant [17] (KX (PLP binding at the active site), global fit (Fig. 8A model)); 2.05 ± 0.06 µM at ePNPO R23L/R24L variant [17] (γKX (PLP binding at active site of PE complex), global fit (Fig. 8A model)). Also, the “type of PLP inhibition” value at wildtype ePNPO [9] (wildtype ePNPO) is on record as “linear mixed-type inhibition”; at ePNPO R23L/R24L variant [17] (Hepes buffer), “parabolic inhibition”. Moreover, the “stoichiometry of PLP binding to the allosteric site” value at wildtype ePNPO [10] is listed as “one PLP molecule per protein dimer”. The “stoichiometry of PLP binding” value in [11] is on record as “two PLP molecules per dimer”. Further, in data set [12], the “α value (allosteric coupling)” value was “about 3”. Further, in data set [12], the “β coefficient (reduction of kCAT of PES complex)” value was 0.15. Further, the “kOFF of PLP binding” value with ePNPO was 3.2 s⁻¹. The “kON of PLP binding” value in the data set on ePNPO was 1.13e+07 M⁻¹ s⁻¹. For the same molecule, the PLP binding stoichiometry result on R23L/R24L ePNPO is “two molecules of PLP per protein subunit; also recorded: four PLP molecules per enzyme dimer”. Further, the “α (allosteric coupling coefficient)” value on ePNPO R23L/R24L variant [17] is given as 6.6. Besides, the “γ factor (PLP active site / allosteric site coupling)” value on ePNPO R23L/R24L variant [17] is on record as 0.31. In addition, the “β (coefficient reducing kCAT of PES complex)” value on ePNPO R23L/R24L variant [17] (global fit (Fig. 8A model)) was 0.42 and 0.42 ± 0.05.

B1: Escherichia coli pyridoxine 5'-phosphate oxidase quadruple variant K72I/Y129F/R133L/H199A (enzyme, UniProt P0AFI7 1-218, looked up)
chain: MSDNDELQQIAHLRREYTKGGLRRRDLPADPLTLFERWLSQACEAKLADPTAMVVATVDEHGQPYQRIVLLIHYDEKGMVFYTNLGSRKAHQIENNPRVSLLFPWHTLERQVMVIGKAERLSTLEVMKFFHSLPRDSQIGAWVSKQSSRISARGILESKFLELKQKFQQGEVPLPSFWGGFRVSLEQIEFWQGGEHRLADRFLYQRENDAWKIDRLAP
notes: pyridoxine 5'-phosphate oxidase (PNPO, EC 1.4.3.5) of Escherichia coli, encoded by pdxH; the entire polypeptide chain is made by 218 residues; active site impaired by four substitutions; Gene cloned in pET22b(+) between NdeI and NcoI; no tag is mentioned; Modelled residues: 7-218 in 6YLZ; 17-126 and 176-218 (chain A), 14-166 and 170-218 (chain B) in 6YMH; also called ePNPOqm; source: E. coli …
Turning to B1, the “stoichiometry N” value in data set [18] was 2.

The Kd is the concentration at which binding is half-saturated. As usually defined, the Ki is a measure of affinity in units of concentration, obtained from inhibition or displacement. As usually defined, the stoichiometry N is the number of molecules, sites or subunits per partner or assembly.
